Results reported in patent US7314866B2, “Ku-70-derived Bax-suppressing peptides and use thereof for the protection of damaged cells” (Bloodcenter of Wisconsin, Inc., priority 2002, dated 2008).
Where a SMILES comes first, the peptide text is derived from it. Where no end group is shown, it is not given here.

Key:
HEK293T cells = experiment: Bax-induced apoptosis in HEK293T cells (pcDNA3-Bax transfection, Hoechst staining); assay type: cell-based, human; conditions: for Suppression of Bax-induced apoptosis: peptide delivered into the cells by liposome (BioPorter); for Suppression of Bax-induced apoptosis by co-transfected Ku70 mutant: 2.0 ug pCMV-2B construct co-transfected with pcDNA3-Bax
Experimental: FIG. 1 illustrates that new peptides designed from Ku70 show anti-Bax activity. FIG. 1A: scheme of Ku70 full-length (Ku70 wt), Ku701-577 (Ku70Δ578–609), or Ku70578-609 (Ku70Δ1–577). FIG. 1C: HEK293T cells were transfected with 1.0 ug of pCMV-2B-control vector (Control) or pcDNA3-Bax (Bax) together with 2.0 ug of pCMV-2B-Ku70 wt (Ku70 wt), pCMV-2B-Ku701-577 (Ku701-577), or pCMV-2B-Ku70578-609 (Ku70578-609). All the cells were also co-transfected with 0.5 ug pEGFP for the marking of transfected cells. Apoptosis in the transfected cells was analyzed 24 hours following transfection with Hoechst dye staining of the nucleus as described in Methods. FIG. 1D: HEK293T cells were incubated with 200 uM peptide composed of Ku70578-587 or Ku70596-600 for 4 hours using BioPorter reagent, and then transfected with 1.0 ug of pCDNA3-control vector (Control) or pcDNA3-Bax (Bax). The number of apoptotic cells was determined as described in FIG. 1C. FIG. 1E: HEK293T cells (10^6 cells) were incubated with 200 uM IPMIK (negative control peptide) or VPMLK (V5) and PMLKE (P5) peptides at the indicated concentrations for 1 hour and then incubated cells were transfected with 1.0 ug of pcDNA3-Bax. Also, unincubated cells were transfected with 1.0 ug of pcDNA3-Bax in the presence or absence of 200 uM z-VAD-fmk. The number of apoptotic cells was determined as described in FIG. 1C. FIG. 1F: Summary of the anti-Bax activity and sequence of all peptides used.
HEK293T and HeLa cells were cultured in MEM supplemented with 10% fetal bovine serum (FBS) and Du145 cells and mouse embryonic fibroblasts (MEFs) were in DMEM with 10% FBS. Transfection of the plasmids was performed by SuperFect (Qiagen) according to the manufacturer's manual. Apoptosis was induced by pcDNA3-human Bax (Bax-encoding plasmid)-transfection, Staurosporin (STS)-treatment and UVC-irradiation. The amount of the plasmids, the concentration of STS, and the energy of UVC-irradiation are described in the figure legends. Apoptosis in the transfected cells was analyzed as follows: A plasmid encoding enhanced green fluorescent protein (EGFP) (0.5 ug to 10^6 cells) was transfected to all the groups to mark the transfected cells. After the treatment, cells were stained with Hoechst dye and cells with apoptotic nuclei were counted in GFP-expressing cells under the fluorescent microscope as described by Matsuyama, et al., J. Biol. Chem. 273:30995–31001, 1998. Each point in the figures showing percentages of apoptosis represents the mean +/−SE of three experiments. Caspase activities of cells were measured by detecting the cleavage of fluorogenic substrate of Caspase (DEVD-afc) as previously described.
BioPorter-based peptide delivery was performed 4 hours before apoptosis induction.

[1] = Membrane permeability and cellular retention of peptides; assay type: in vitro ADME
[2] = target: T1, interaction of Ku70 and Bax (Homo sapiens, UniProt Q07812); experiment: Co-immunoprecipitation of endogenous Ku70 and Bax in cell lysates with added peptide; assay type: binding; conditions: peptide added to cell lysates
T1 construct: endogenous in cells; HeLa and 293 cells for the V6 peptide
Experimental: FIGS. 6A–D: HEK293T cells (10^7 cells) lysed in CHAPS buffer were incubated with 200 uM negative control (NC) peptide or (A) VPMLK (V5, SEQ ID NO: 1), (B) PMLKE (P5, SEQ ID NO: 2), (C) PMLK (P4, SEQ ID NO: 3), and (D) MLKE (M4, SEQ ID NO: 6) at the indicated concentrations for 1 hour. Immunoprecipitation was performed with anti-Ku70 monoclonal antibody or anti-Bax polyclonal antibody using CHAPS buffer as described in Methods. Mouse IgG and pre-immune rabbit serum (NRS) were used as negative controls.
By testing several deletion mutants of the Ku70 protein, I have identified the Bax-binding domain in Ku70. The domain comprises 6 amino acids (VPMLKE, SEQ ID NO: 7). This peptide (Ku70 Peptide V6) inhibits the interaction of Ku70 and Bax at the concentration of 20–80 μM in lysates prepared from human cultured cells (HeLa cells and human kidney epithelial 293 cells).
Endogenous protein: HEK293T (10^7 cells) were lysed in 200 ul of “CHAPS-based buffer” (150 mM NaCl, 10 mM Hepes, pH 7.4, 1.0% CHAPS) containing protease inhibitors (100 times dilution of Protease Inhibitors Cocktail; Sigma) according to the previously reported method (Hsu and Youle, J. Biol. Chem. 273:10777–10783, 1998). […]

endogenous Bax = target: T2, endogenous Bax (Homo sapiens, UniProt Q07812); experiment: Co-immunoprecipitation of Flag-tagged Ku70 mutants and endogenous Bax; assay type: binding; conditions: HEK293T cells
T2 construct: endogenous in cells; host or cells: HEK293T
Experimental: Endogenous protein: HEK293T (10^7 cells) were lysed in 200 ul of “CHAPS-based buffer” (150 mM NaCl, 10 mM Hepes, pH 7.4, 1.0% CHAPS) containing protease inhibitors (100 times dilution of Protease Inhibitors Cocktail; Sigma) according to the previously reported method (Hsu and Youle, J. Biol. Chem. 273:10777–10783, 1998). After precleaning of 600 ul of the sample with 50 ul of Protein G-Sepharose at 4° C. for 1 hour, immunoprecipitations were performed by incubating 200 ul of lysates with 20 ul of Protein G-Sepharose preabsorbed with 2 ug of anti-Bax polyclonal (BD-Pharmingen) or anti-Ku70 monoclonal antibody (BD-Pharmingen) at 4° C. for 2 hours. In some cases, 2 ug of anti-Bax monoclonal antibody (clone 6A7, BD Pharmingen) was used to detect active form of Bax. After extensive washing in the buffer, beads were boiled in 40 ul of Laemmli buffer and 20 ul of the eluted proteins were subjected to SDS-PAGE. Co-precipitation of biotin-labeled peptides and endogenous Bax using streptavidin beads: HEK293T cells (10^7 cells) lysed in 200 ul CHAPS-based buffer were incubated with biotin-labeled negative control (NC) peptide or VPMLK (V5; SEQ ID NO: 1) peptide for 1 hour. The concentrations of NC and V5 peptide labeled with biotin are described in the figure legends. […]

[3] = target: T3, endogenous Bax in Ku70-deficient mouse embryonic fibroblasts (mouse, UniProt Q07813 1-192); experiment: Scatchard analysis; FITC fluorescence before and after immunoprecipitation of Bax from Ku70-deficient MEF cytosol
T3 construct: also called endogenous Bax in Ku70-deficient MEFs
Experimental: The interaction of BIP and Bax was confirmed by experiments using the system of biotin-labeled BIP and streptavidin beads. Biotin-labeled BIP (biotin-VPMLK; SEQ ID NO: 1), but not negative control peptide (biotin-IPMIK; SEQ ID NO: 5) precipitated Bax from the cell lysates when the streptavidin beads were added to the samples.
Ku70-deficient MEFs (10^7 cells) were lysed in 200 ul of "detergent-free hypotonic buffer" (hypotonic (5 mM NaCl) phosphate buffered saline, pH 7.4) containing protease inhibitors (100 times dilution of Protease Inhibitors Cocktail; Sigma) according to the previously reported method (Hsu and Youle, supra, 1998). For Scatchard analysis, the cytosol fraction was used and NaCl was added to prepare the isotonic condition before immunoprecipitation as previously reported (Hsu and Youle, supra, 1998). […] FITC fluorescence of pre-immunoprecipitation ("B"+"F") and the supernatant following immunoprecipitation ("F") were measured by fluorescence microplate reader (Molecular Devices), and the values of "B+F" and "B" were calculated. Kd was calculated by Scatchard plot. […] No significant binding of FITC-V5 to the cellular components was detected in Bax-immunodepleted samples.

human Bax = target: T4, human Bax (human, UniProt Q07812 1-192); experiment: fluorescence microscopy of HeLa cells and of Du145 cells with or without pcDNA3-Bax
T4 construct: Protein in cell lysates or cells, not purified; also called endogenous Bax; pcDNA3-Bax (human)
Experimental: HeLa cells and transfected or untransfected Du145 cells with pcDNA3-Bax were incubated with 200 uM FITC-labeled VPMLK (V5; SEQ ID NO: 1) peptide for 1 hour prior to microscopic analysis by fluorescent microscope. For immunostaining, cells incubated with FITC-V5 peptide for 1 hour were fixed with 4% paraformaldehyde in phosphate buffered saline (PBS). Cells were permeablized with 0.5% Triton X-100 and 0.05% Tween-20 in PBS. Fixed cells were incubated in PBS containing 5% BSA at 37 C, and stained with anti-Bax monoclonal antibody (BD-Pharmingen, dilution 1:50) followed by the detection of Texas-Red labeled anti-mouse IgG (Jackson ImmunoResearch, dilution 1:100).

T1 sequence (Q07812 whole entry): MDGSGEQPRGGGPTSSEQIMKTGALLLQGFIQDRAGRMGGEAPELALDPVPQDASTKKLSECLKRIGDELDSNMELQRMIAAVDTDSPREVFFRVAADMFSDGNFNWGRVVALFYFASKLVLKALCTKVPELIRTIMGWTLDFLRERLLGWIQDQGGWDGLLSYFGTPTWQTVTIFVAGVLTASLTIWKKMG
T2 sequence (Q07812 whole entry): as above
T3 sequence (Q07813 whole entry): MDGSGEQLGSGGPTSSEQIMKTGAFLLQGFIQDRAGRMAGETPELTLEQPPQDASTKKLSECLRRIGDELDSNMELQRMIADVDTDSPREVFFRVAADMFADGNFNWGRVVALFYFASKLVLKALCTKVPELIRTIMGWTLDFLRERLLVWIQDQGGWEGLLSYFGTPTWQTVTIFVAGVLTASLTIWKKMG
T4 sequence (Q07812 whole entry): as the sequence (Q07812 whole entry) above

**Q.** With “578–587: synthetic peptide of Ku70 amino acids 578–587, 2nd α-helix from the C-terminus (VPMLKEACRA; UniProt P12956 578-587, looked up, fragment)” as the molecule, how does the “Suppression of Bax-induced apoptosis” value (HEK293T cells) read?
**A.** Its value is “inhibited Bax-induced apoptosis”.

**Q.** For “596–600: synthetic peptide of Ku70 amino acids 596–600 (KQELL; UniProt P12956 596-600, looked up, fragment)”, which “Suppression of Bax-induced apoptosis” value (HEK293T cells) is on record?
**A.** Its value is “not”.

**Q.** For `CSCC[C@H](NC(=O)[C@@H]1CCCN1)C(=O)N[C@@H](CC(C)C)C(=O)N[C@@H](CCCCN)C(=O)N[C@@H](CCC(=O)O)C(=O)O` [PMLKE] (H-PMLKE-OH; N-terminus and C-terminus assumed), which Membrane permeability [1] is on record?
**A.** The Membrane permeability was “membrane permeable”.

**Q.** And the “Retention of the peptide in the cell” value [1]?
**A.** The value was “effectively retained inside the cells”.

**Q.** With `CSCC[C@H](NC(=O)[C@@H]1CCCN1)C(=O)N[C@@H](CC(C)C)C(=O)N[C@@H](CCCCN)C(=O)O` [PMLK] (H-PMLK-OH; N-terminus and C-terminus assumed) as the molecule, how does the “Retention of the peptide in the cell” value [1] read?
**A.** Its value is “not retained in the cell”.

**Q.** Which Membrane permeability [1] does the source give for `CSCC[C@H](NC(=O)[C@@H]1CCCN1C(=O)[C@@H](N)C(C)C)C(=O)N[C@@H](CC(C)C)C(=O)N[C@@H](CCCCN)C(=O)N[C@@H](CCC(=O)O)C(=O)O` [VPMLKE] (H-VPMLKE-OH; N-terminus and C-terminus assumed) here?
**A.** The Membrane permeability was “not membrane permeable”.

**Q.** For `CSCC[C@H](NC(=O)[C@@H]1CCCN1C(=O)[C@@H](N)C(C)C)C(=O)N[C@@H](CC(C)C)C(=O)N[C@@H](CCCCN)C(=O)O` [VPMLK] (H-VPMLK-OH; N-terminus and C-terminus assumed), which Membrane permeability [1] is on record?
**A.** Its Membrane permeability is “membrane permeable”.

**Q.** And the “Retention of the peptide in the cell” value [1]?
**A.** The value was “effectively retained inside the cells”.

**Q.** With “Ku70 Peptide NC: immediate next six amino acid sequence of Ku70, negative control (LGKFTV) [reference compound]” as the molecule, how does the “Effect on the interaction of Ku70 and Bax” value [2] read?
**A.** The value was “did not affect the interaction of Ku70 and Bax”.

**Q.** What does the source list for “Ku701-577: Ku70 mutant deleted of amino acids 578–609”?
**A.** Binding of Flag-tagged Ku70 mutant to endogenous Bax (endogenous Bax): did not; Suppression of Bax-induced apoptosis by co-transfected Ku70 mutant (HEK293T cells): not

**Q.** What does the source list for “Ku70578-609: Flag-tagged Ku70 mutant expressing the amino acids 578–609 of Ku70 (VPMLKEACRAYGLKSGLKKQELLEALTKHFQD; also: Flag-tagged)”?
**A.** Binding of Flag-tagged Ku70 mutant to endogenous Bax (endogenous Bax): binds endogenous Bax; Suppression of Bax-induced apoptosis by co-transfected Ku70 mutant (HEK293T cells): suppressed Bax-induced apoptosis

**Q.** For MLKE [four amino acid deletion peptide], which “Effect on the interaction of Ku70 and Bax” value [2] is on record?
**A.** The value was “did not interfere with Bax-Ku70 interaction”.

B1: FITC-labeled BIP (VPMLK; SEQ ID NO: 1) (peptide)
peptide: VPMLK
modifications: also: FITC-labeled, position of label not given here
notes: also called FITC-BIP; FITC-V5
**Q.** With B1 as the molecule, how does the Kd [3] read?
**A.** Its Kd is 1300 nM.

**Q.** Does B1 bind (human Bax)?
**A.** Result: binds
